According to US20040254246A1, “Treating or preventing hot flashes using prodrugs of GABA analogs” (priority 2003, published 2004):

Assays:
[1] = tested on: hot flashes in postmenopausal women; details: 59 postmenopausal women, double-blind placebo controlled trial; cited from earlier work
[2] = tested on: hot flashes in postmenopausal women; test: Open label clinical study of hot flash frequency and severity, immediate release capsules; assay type: in vivo, human; details: immediate release 300 mg capsules, two capsules three times daily (1800 mg/day), oral, two weeks
Excerpt: Twenty postmenopausal women who have been experiencing hot flashes (an average of at least 6 per day, range 6-20 per day) over the past 12 months and who have not been treated with hormone therapy (i.e., no estrogen, progestin, tamoxifen or leuprolide therapy) over the past 2 months are recruited to an open label clinical study on the effect of administration of a gabapentin prodrug on the frequency and severity of hot flash symptoms. After a two week baseline screening assessment, the prodrug 1-{[(α-isobutanoyloxyethoxy)carbonyl]aminomethyl}-1-cyclohexane acetic acid (synthesized as described by Gallop et al., International Publication No. WO 02/100347), formulated as an immediate release dosage form in 300 mg capsules, is administered in two capsules three times daily (1800 mg/day, equal to ˜900 mg gabapentin equivalents/day) for two weeks. Each patient records the frequency and severity of hot flashes in a diary following the protocol of Guttuso et al., Obstet. Gynecol. 2003, 101, 337-345. Daily hot flash frequency is calculated by totaling the number of hot flashes per week and dividing by the number of days in the week for which data is recorded. The primary outcome measure is the percentage change in hot flash frequency from baseline to the end of treatment week two. […]

[3] = Drug release from sustained release oral osmotic dosage form in artificial gastric fluid; assay type: physicochemical; details: osmotic sustained release dosage form of Section 5.2 (700 mg drug composition), one 10 mil passageway
Procedure: A sustained release oral osmotic delivery dosage form containing the gabapentin prodrug 1-{[(α-isobutanoyloxyethoxy)carbonyl]aminomethyl}-1-cyclohexane acetic acid is prepared following methods described in Ayer et al., U.S. Pat. No. 5,707,663. Accordingly, 660 grams of 1-{[α-isobutanoyloxyethoxy)carbonyl]aminomethyl}-1-cyclohexane acetic acid and 30 grams of pharmaceutical acceptable poly(ethylene oxide), 5,000,000 molecular weight, is added to the bowl of a fluid bed granulator. The microencapsulation process is computerized and atomized in cycles. The process is initiated by first fluidizing the dry drug and the polymer powder for 3 minutes and the blended granules are microencapsulated with aqueous hydroxypropylmethylcellulose solution. The polymer solution is prepared by dissolving 35 grams of hydroxypropylmethylcellulose comprising 11,200 molecular weight in 400 grams of water. […]
The osmotic displacement-push composition is then prepared as follows: first, 3.7 kg of sodium chloride and 150 grams of red ferric oxide are separately screened through an 8 mesh screen using a Quadro comil. […] The conditions monitored during the process are as follows: solution spray rate of 400 g/min (3 nozzles are used); inlet temperature 45° C.; outlet temperature 24° C. and process air flow of 1,500 ft^3/minute. […]

[4] = tested on: hot flashes in postmenopausal women; test: Open label clinical study of hot flash frequency and severity, osmotic sustained release capsules; assay type: in vivo, human; details: osmotic sustained release capsules 700 mg, two capsules twice daily (2800 mg/day), oral, two weeks
Excerpt: Twenty postmenopausal women who have been experiencing hot flashes (an average of at least 6 per day, range 6-20 per day) over the past 12 months and who have not been treated with hormone therapy (i.e., no estrogen, progestin, tamoxifen or leuprolide therapy) over the past 2 months are recruited to an open label clinical study on the effect of administration of gabapentin prodrugs on the frequency and severity of hot flash symptoms. After a two week baseline screening assessment, the prodrug 1-{[(α-isobutanoyloxyethoxy)carbonyl]aminomethyl}-1-cyclohexane acetic acid, formulated as osmotic sustained release capsules containing 700 mg drug (preparation of the sustained release capsules is described in Section 5.2 above), is administered in two capsules twice daily (2800 mg/day, equal to ˜1400 mg gabapentin equivalents/day) for two weeks. Each patient records the frequency and severity of hot flashes in a diary following the protocol of Guttuso et al., Obstet. Gynecol 2003, 101, 337-345. Daily hot flash frequency is calculated by totaling the number of hot flashes per week and dividing by the number of days in the week for which data is recorded. The primary outcome measure is the percentage change in hot flash frequency from baseline to the end of treatment week two.

Compound	reduction in hot flash frequency from baseline [1]	decrease in mean hot flash intensity from baseline [2]	release rate [3] [mg/h]	decrease in mean hot flash intensity from baseline [4]
NCC1(CC(=O)O)CCCCC1 [gabapentin, 1-Aminomethyl-1-cyclohexane acetic acid]	substantial reduction in hot flash frequency from baseline			
CC(OC(=O)NCC1(CC(=O)O)CCCCC1)OC(=O)C(C)C (stereo not drawn) [1-{[(α-isobutanoyloxyethoxy)carbonyl]aminomethyl}-1-cyclohexane acetic acid]		more than 35%	> 20	more than 35%
